Conditions: Liquid

Cc1ccccc1 [toluene]
Conditions | viscosity [mPa·s]
298.15 K, 100 kPa | 0.555
298.15 K, 2110 kPa | 0.5649
298.15 K, 4100 kPa | 0.5743
298.15 K, 6100 kPa | 0.585
298.15 K, 8110 kPa | 0.5937
298.15 K, 10110 kPa | 0.6024
323.15 K, 100 kPa | 0.4188
323.15 K, 2080 kPa | 0.429
323.15 K, 4110 kPa | 0.4348
323.15 K, 6000 kPa | 0.4409
323.15 K, 8120 kPa | 0.4493
323.15 K, 10050 kPa | 0.455
323.15 K, 12210 kPa | 0.4637
323.15 K, 15000 kPa | 0.4736
348.15 K, 100 kPa | 0.3331
348.15 K, 2120 kPa | 0.3382
348.15 K, 12110 kPa | 0.3664
348.15 K, 15210 kPa | 0.3759

viscosity [mPa·s], Vibrating wire viscometry
Conditions | 100 kPa | 10000 kPa | 20000 kPa | 30000 kPa | 40000 kPa
298.15 K | 0.5551 | 0.6003 | 0.6445 | 0.6953 | 0.751
323.15 K | 0.4223 | 0.4573 | 0.4945 | 0.5313 | 0.5718
348.15 K | 0.3285 | 0.3583 | 0.3875 | 0.4165 | 0.4483

From the NIST ThermoML archive (doi:10.1021/je049636m)
